In US7238716B2, “Alkanoic acid derivatives process for their production and use thereof” (Takeda Pharmaceuticals Company Limited, priority 2000, dated 2007):

Legend:
PPARγ-RXRα heterodimer = molecular target: T1, PPARγ-RXRα heterodimer (Homo sapiens, UniProt P37231); experiment: PPARγ-RXRα heterodimer ligand activity, luciferase reporter in PPARγ:RXRα:4ERPP/CHO-K1 cells (Test Example 3); type: cell-based; settings: concentration for 50% of the maximum fold induction of luciferase activity; 48 hours, CHO-K1 cells
T1 construct: expressed in transfected cells; host or cells: CHO-K1
T1 sequence (P37231 1-477 isoform P37231-2): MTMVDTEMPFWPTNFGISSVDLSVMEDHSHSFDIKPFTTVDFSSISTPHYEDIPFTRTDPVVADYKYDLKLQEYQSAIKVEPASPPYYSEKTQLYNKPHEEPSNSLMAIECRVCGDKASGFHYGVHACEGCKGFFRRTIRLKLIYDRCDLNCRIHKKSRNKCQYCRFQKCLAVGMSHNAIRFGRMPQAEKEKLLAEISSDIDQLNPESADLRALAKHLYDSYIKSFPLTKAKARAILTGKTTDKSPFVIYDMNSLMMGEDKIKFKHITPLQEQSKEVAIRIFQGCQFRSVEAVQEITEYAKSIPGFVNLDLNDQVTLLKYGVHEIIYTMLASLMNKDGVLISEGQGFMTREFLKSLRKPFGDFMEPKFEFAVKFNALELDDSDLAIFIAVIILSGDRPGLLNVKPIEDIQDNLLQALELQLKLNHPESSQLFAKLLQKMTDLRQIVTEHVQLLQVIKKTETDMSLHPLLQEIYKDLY
T1 sequence (P19793 1-462 partner): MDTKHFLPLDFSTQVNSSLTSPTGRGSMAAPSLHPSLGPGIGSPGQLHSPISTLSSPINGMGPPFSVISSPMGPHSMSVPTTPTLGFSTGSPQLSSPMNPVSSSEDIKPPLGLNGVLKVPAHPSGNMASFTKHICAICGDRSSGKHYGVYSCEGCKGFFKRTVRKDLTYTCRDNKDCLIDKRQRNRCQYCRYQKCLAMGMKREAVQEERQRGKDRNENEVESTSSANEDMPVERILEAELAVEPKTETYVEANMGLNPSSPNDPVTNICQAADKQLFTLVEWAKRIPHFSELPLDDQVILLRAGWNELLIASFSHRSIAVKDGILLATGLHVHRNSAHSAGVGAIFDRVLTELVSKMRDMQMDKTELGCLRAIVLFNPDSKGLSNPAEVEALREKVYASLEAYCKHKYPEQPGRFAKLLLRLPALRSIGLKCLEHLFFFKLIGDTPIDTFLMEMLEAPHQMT
Summary of the method: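 CHO-K1 cells stably carrying hPPARγ/RXR expression plasmid and 4ERPP-TK luciferase reporter, treated 48 h at 37 °C in HAM F12 with 0.1% fatty-acid-free BSA. Luciferase fold induction taken over untreated cells; EC50 at 50% of maximal fold induction.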

SMILES	melting point [°C]	EC50 (PPARγ-RXRα heterodimer) [µM]
Cc1sc(-c2ccccc2)nc1COc1ccc(COc2ncccc2CC(=O)O)cc1 [Example 93, 2-[2-[4-[(5-methyl-2-phenyl-4-thiazolyl)methoxy]benzyloxy]-3-pyridyl]acetic acid]	128 to 129	0.39
Cc1oc(-c2ccccc2)nc1CCc1ccc(COc2ccccc2CC(=O)O)cc1 [Example 97, 2-[2-[4-[2-(5-methyl-2-phenyl-4-oxazolyl)ethyl]benzyloxy]phenyl]acetic acid]	130 to 131	0.026
Cc1oc(-c2ccccc2)nc1CCc1noc(COc2ccccc2CC(=O)O)n1 [Example 107, 2-[2-[[3-[2-(5-methyl-2-phenyl-4-oxazolyl)ethyl]-1,2,4-oxadiazol-5-yl]methoxy]phenyl]acetic acid]	120 to 121	0.087
Cc1ccc(CC(=O)O)c(OCc2ccc(OCc3nc(-c4ccccc4)oc3C)cc2)n1 [Example 110, 2-[6-methyl-2-[4-[(5-methyl-2-phenyl-4-oxazolyl)methoxy]benzyloxy]-3-pyridyl]acetic acid]	138 to 139	0.042
Cc1oc(-c2ccccc2)nc1COc1cc(COc2ncccc2CC(=O)O)on1 [Example 129, 2-[2-[[3-[(5-methyl-2-phenyl-4-oxazolyl)methoxy]-5-isoxazolyl]methoxy]-3-pyridyl]acetic acid]	129 to 130	0.059
Cc1oc(-c2ccc3ccccc3c2)nc1COc1ccc(COc2ncccc2CC(=O)O)cc1 [Example 130, 2-[2-[4-[5-methyl-2-(2-naphthyl)-4-oxazolylmethoxy]benzyloxy]-3-pyridyl]acetic acid]	155 to 156	0.011
